Data from patent publication US12085575B2, “Compositions and methods for detecting proteinopathies” (BOARD OF SUPERVISORS OF LOUISIANA STATE UNIVERSITY AND …, priority 2011, dated 2024).
Residues, ends and D or L forms follow the SMILES beside them. *: point of attachment. Cbz = O=C(OCc1ccccc1)*

Test system: Mfn2
Assay: Mfn2 modification and degradation in A-T/LV shRNA cells treated with mitochondrial depolarizing agents
Assay type: cell-based, human
Conditions: ISG15-silenced A-T cells; CCCP 25 uM with MG132 or Bafl 100 nM, 24 hr
Protocol: Immunoblotting Analysis of Mitochondrial Proteins—Mitochondria were isolated from A-T/LV control and ISG15 shRNA cells using the Miochondrial Isolation Kit (Thermo Scientific Company, 89874). The Dounce homogenization protocol described by the manufacturer was used to isolate mitochondria from cells. Mitochondrial pellets were resuspended in lysis buffer containing 50 mM Tris pH 7.5 and 4% (v/v) SDS. Samples were homogenized and boiled for 10 min. Lysates containing equal protein were then mixed with 6× Laemmli SDS sample buffer (3× final concentration). Samples were boiled again and mitochondrial proteins were analyzed by SDS-PAGE. Immunoblotting analyses using either anti-ISG15 (raised against human ISG15) (20), anti-ubiquitin (gift from Dr. Arthur Haas, at LSUHSC—New Orleans), or anti-mitofusin 2 (Abcam, ab88569) antibodies were carried out using the ECL Western procedure (Pierce, 34076) and the BioRad VersaDoc Imaging System (BioRad). Immunoblotting Analysis of HA Polyubiquitylated Proteins in Cells: Cells were transfected with HA-ubiquitin using the PolyFect transfection reagent (Qiagen, 301105). Twenty four hours after transfection, mitochondria were isolated as described above. Mitochondrial lysis, SDS-PAGE, and immunoblotting analysis to detect HA-ubiquitin conjugated proteins using anti-HA antibodies were carried out as described above. Immunoblotting Analysis of Mfn2 in Cells: Cells were lysed in lysis buffer containing 50 mM Tris-HCl, pH 7.5, 2% SDS, and protease inhibitor cocktail. Lysates were sonicated, boiled, and cleared by centrifugation. Lysates containing equal protein were then mixed with 6× Laemmli SDS sample buffer (3× final concentration). Samples were boiled again and proteins were separated by 15% SDS-PAGE. Immunoblotting analysis was carried out using anti-Mfn2 antibodies (Abcam) as described above. Intensity of the Mfn2 bands was quantitated using BioRad Quantity One software. Statistical analysis—Statistical analysis was carried out using GraphPad software.
Many outer mitochondrial membrane (OMM) proteins are ubiquitylated and degraded via the 26S proteasome prior to mitophagy in cells treated with the mitochondrial depolarizing agents (28,29). To test whether ISG15 inhibits polyubiquitylation of OMM proteins, we assessed the fate of Mfn2, an OMM protein and proteasome substrate, in A-T/LV-control and A-T/LV-ISG15-silenced cells treated with two different mitochondrial depolarizing agents, valinomycin and carbonylcyanide m-chlorophenylhydrazone (CCCP). Consistent with the literature reports (29,35,36), we observed a ladder of high molecular weight anti-Mfn2 cross-reactive bands above the 86 kDa Mfn2 protein band that is reminiscent of polyubiquitylation, in both ISG15-silenced and ISG15 overexpressing A-T cells (FIGS. 34 A and B, left panels). The endogenous level of these high molecular weight Mfn2 cross-reactive bands was remarkably higher in ISG15-silenced as compared to the ISG15-overexpressing A-T cells in the absence of any drugs (FIGS. 34A and B, first panels, compare lanes 1 and 4). […] In contrast, the level of these Mfn2 cross-reactive high molecular weight bands decreased under the same drug treatment conditions in ISG15-silenced A-T cells (FIGS. 34A and B, first panels, lanes 4-6, and the accompanying bar graph in the second panel for quantitation). […] The bar graphs in FIGS. 34A and B, third panels, show mean values of the ratio between free Mfn2 (86 kDa band) and actin proteins (±SEM) in CCCP-treated A-T/LV-control and ISG15 shRNA cells measured from eight independent experiments, and valinomycin-treated A-T/LV-control and ISG15 shRNA cells measured from three independent experiments respectively.

Row | Compound | free Mfn2 degradation in CCCP-treated cells
1 | CC(C)C[C@@H](C=O)NC(=O)[C@H](CC(C)C)NC(=O)[C@H](CC(C)C)NC(=O)OCc1ccccc1 [MG132] (Cbz-Leu-Leu-Leu-aldehyde) | restored
2 | CO/C1=C\C(C)=C\[C@@H](C)[C@@H](O)[C@@H](C)C/C(C)=C/C=C/[C@H](OC)[C@@H]([C@@H](C)[C@@H](O)[C@H](C)[C@@]2(O)C[C@@H](O)[C@H](C)[C@@H](C(C)C)O2)OC1=O [Bafilomycin A1] | not
